Legend:
[1] = Metabolic stability in rat liver microsomes; assay type: in vitro ADME; conditions: 37° C., NADPH
Experimental: (§1) The metabolic stability in relation to liver microsomes (species human, rat) was determined in accordance with the following description: the substances were incubated at a test concentration of 1 […] An HPLC MS/MS method was subsequently used to quantify the unmetabolized amount of starting compound relative to 100%.

[2] = Metabolic stability in human liver microsomes; assay type: in vitro ADME; conditions: 37° C., NADPH
Experimental: as §1

[3] = Saturation solubility in water; assay type: physicochemical; conditions: water, thermodynamic from solid; maximum of 1% DMSO added, HPLC UV
Experimental: The saturation solubility in water was determined in accordance with the following description: to initiate dissolving of the substances and to improve the wetting of the samples, a maximum of 1% DMSO was added. The content was checked by using an HPLC UV method.

NK1 (h) = molecular target: T1, NK1 (h) (Homo sapiens, UniProt P25103); assay: NK1 receptor-ligand binding assay (Cerep); conditions: for nH: Hill coefficient of competition plot; for IC50 / Ki: ligand [Sar9, Met(O2)11]-SP
T1 construct: Cerep Assay 826-1h
T1 sequence (P25103 whole entry): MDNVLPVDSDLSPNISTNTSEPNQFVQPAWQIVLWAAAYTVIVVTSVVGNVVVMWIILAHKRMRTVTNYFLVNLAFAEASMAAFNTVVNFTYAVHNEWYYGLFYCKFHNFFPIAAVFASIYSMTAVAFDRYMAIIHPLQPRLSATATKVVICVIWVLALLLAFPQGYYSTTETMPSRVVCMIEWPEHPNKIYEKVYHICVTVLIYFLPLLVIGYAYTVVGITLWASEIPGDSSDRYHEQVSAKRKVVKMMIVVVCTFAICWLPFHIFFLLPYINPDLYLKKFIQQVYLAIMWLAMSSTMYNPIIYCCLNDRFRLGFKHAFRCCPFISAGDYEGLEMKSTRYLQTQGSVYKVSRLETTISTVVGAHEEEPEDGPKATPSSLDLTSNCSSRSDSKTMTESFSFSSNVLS
Experimental: (§2) Receptor affinities (IC50 values) of the compounds of the invention of the general formulae (I, Ia and Ib) were measured as described by E. Heuillet et al., J. Neurochem., 60: 868-876 (1993) and D. Aharony et al. Mol. Pharmacol, 44: 356-363 (1993) commercially by Cerep (Assay 826-1h on page 67 and Assay 826-2h on page 68 of the 2005 catalogue).
(§3) FIGS. 8-11 show competition plots measured in the NK1 and NK2 receptor-ligand binding assays with [Sar^9, Met(O2)^11]-SP for NK1 and [Nle^10]-NKA(4-10) for NK2, and the selected substances (68 and 76).

NK2 (h) = molecular target: T2, NK2 (h) (Homo sapiens, UniProt P21452); assay: NK2 receptor-ligand binding assay (Cerep); conditions: for nH: Hill coefficient of competition plot; for IC50 / Ki: ligand [Nle10]-NKA(4-10)
T2 construct: Cerep Assay 826-2h
T2 sequence (P21452 1-398): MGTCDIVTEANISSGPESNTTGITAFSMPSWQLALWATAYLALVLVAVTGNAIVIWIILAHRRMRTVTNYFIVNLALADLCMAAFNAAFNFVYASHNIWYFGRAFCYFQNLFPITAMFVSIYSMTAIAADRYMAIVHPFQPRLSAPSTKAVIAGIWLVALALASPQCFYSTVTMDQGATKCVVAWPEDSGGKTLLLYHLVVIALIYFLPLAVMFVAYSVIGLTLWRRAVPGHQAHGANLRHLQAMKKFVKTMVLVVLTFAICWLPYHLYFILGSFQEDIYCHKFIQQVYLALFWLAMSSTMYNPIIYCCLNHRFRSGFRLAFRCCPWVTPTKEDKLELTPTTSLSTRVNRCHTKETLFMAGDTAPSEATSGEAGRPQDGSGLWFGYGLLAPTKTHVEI
Experimental: as §2, §3

castrated rats = assay: LH concentration suppression in the plasma of castrated rats; assay type: in vivo, rat; conditions: 19 mg/kg oral in Solutol HS15/1,2-propane-diol (3:1)
Experimental: The LH concentration in the plasma of castrated rats was measured using the rat luteinizing hormone (rLH) enzyme immunoassay (EIA) system ELISA (RPN 2562) from Amersham Pharmacia Biotech or of LH RIA-AH R002 rats; from Biocode-Hycel, Liege, Belgium. All other chemicals used were from commercial sources in the highest purity available.
10 days before the start of the test, male Sprague Dawley rats (Harlan Winkelmann, Germany) weighing 190-220 g were anesthetized with ether and castrated and provided with a silicone catheter for permanent blood sampling.
At the start of the test, before administration of the substance, blood samples were taken and the LH level determined. The substance was then administered orally in the desired concentration. The number of animals used in each group was 8. At the stated times, further blood samples were taken. The blood was collected in heparinized sample tubes on ice, and the plasma was obtained by centrifugation at 3000 g for 10 minutes. The plasma samples were stored at −20° C. until the LH concentration was measured by ELISA or RIA. The LH concentration was determined by an ELISA or RIA in duplicate determination in accordance with the manufacturer's (Amersham Pharmacia Biotech; Biocode-Hycel) instructions.
All the other data points for each individual animal were calculated as relative concentration compared with the LH concentration before treatment.

LHRH receptor [4] = molecular target: T3, LHRH receptor (Rattus norvegicus, UniProt P30969); assay: LHRH receptor-ligand binding assay (membrane preparations from rat pituitary cells); conditions: competition with 0.05 nM [125I][D-Trp6]-LHRH, 90 min, 4° C., rat pituitary membranes
T3 construct: rat pituitary cells which naturally strongly express the LHRH receptor; from tissue; host or cells: rat pituitary cells (membrane preparation)
T3 sequence (P30969 1-327): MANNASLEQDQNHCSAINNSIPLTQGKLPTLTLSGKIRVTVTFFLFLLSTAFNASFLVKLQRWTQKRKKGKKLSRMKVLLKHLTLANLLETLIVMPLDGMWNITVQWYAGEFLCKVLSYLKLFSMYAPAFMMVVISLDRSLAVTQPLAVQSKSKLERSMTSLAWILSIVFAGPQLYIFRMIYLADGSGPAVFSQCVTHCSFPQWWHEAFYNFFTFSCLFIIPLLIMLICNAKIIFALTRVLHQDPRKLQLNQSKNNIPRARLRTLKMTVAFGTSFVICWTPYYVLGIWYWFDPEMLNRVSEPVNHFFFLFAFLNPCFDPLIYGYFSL
Experimental: Heterologous competition experiments were carried out using membrane preparations from rat pituitary cells which naturally strongly express the LHRH receptor. The ligand used in this case was [^125I][D-Trp^6]-LHRH in a concentration of 0.05 nM. Unlabeled [D-Trp^6]-LHRH was used in a concentration of 1 μM, or the test substance was used in the desired concentration, for competition. After an incubation time of 90 minutes at 4° C., the bound ligand was measured by scintillation (Halmos et al., Proc. Natl. Acad. Sci. USA, 1996, 93, 2398).
The result obtained was the percentage proportion of bound ligand in the presence of the competitor related to the specifically bound proportion of the control (see result for selected compounds in Table 3). EC50 values were calculated by nonlinear regression analysis of the competition plots.

LHRH receptor [5] = molecular target: LHRH receptor (Homo sapiens, UniProt P30968); conditions: prior art, N. Cho et al. J. Med. Chem. 41, 4190-4195 (1998); cited from earlier work
Sequence of LHRH receptor (Homo sapiens, UniProt P30968) (P30968 whole entry): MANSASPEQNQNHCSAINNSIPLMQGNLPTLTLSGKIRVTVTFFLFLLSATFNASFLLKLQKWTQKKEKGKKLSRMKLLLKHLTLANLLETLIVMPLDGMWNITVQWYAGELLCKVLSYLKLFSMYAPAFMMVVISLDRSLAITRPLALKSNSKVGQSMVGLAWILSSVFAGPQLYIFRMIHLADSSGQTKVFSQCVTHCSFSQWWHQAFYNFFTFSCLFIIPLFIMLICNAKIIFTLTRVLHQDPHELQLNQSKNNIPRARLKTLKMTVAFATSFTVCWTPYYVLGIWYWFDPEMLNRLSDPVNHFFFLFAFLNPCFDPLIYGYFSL

[6] = in vivo; cited from earlier work

nH (NK1 (h))	IC50 (NK1 (h))	Ki (NK1 (h))	recovery at 10 μM [1]	recovery at 10 μM [2]	nH (NK2 (h))	IC50 (NK2 (h))	Ki (NK2 (h))	EC50 (LHRH receptor [4])	SMILES	also measured
									CCC(C)[C@H](NC(=O)[C@@]1(NC(=O)[C@@H](NC(=O)OCc2ccccc2)C(C)CC)CCc2[nH]c3c(Cl)cc(Cl)cc3c2C1)C(N)=O (stereo partly drawn) [Example 295 from WO 03/051837 A2, Benzyl {(S)-1-[(R)-3-((S)-1-carbamoyl-2-methylbutylcarbamoyl)-6,8-dichloro-2,3,4,9-tetrahydro-1H-carbazol-3-ylcarbamoyl]-2-methylbutyl]carbamate, reference compound]	recovery at 1 μM ([1]; 1 μM): 0%; recovery at 1 μM ([2]; 1 μM): 0%; solubility [3]: < 0.05 µg/mL
2.0	1400 nM	640 nM	80%	75%	3.8	1600 nM	850 nM	1 nM	CCC(C)[C@H](NC(=O)Cc1ccccc1F)C(=O)N[C@]1(C(=O)N[C@H](C(N)=S)C(C)CC)CCc2[nH]c3c(Cl)cc(F)cc3c2C1 (stereo partly drawn) [Compound 68, (R)-8-chloro-6-fluoro-3-{(S)-2-[2-(2-fluorophenyl)acetylamino]-3-methylpentanoylamino}-2,3,4,9-tetrahydro-1H-carbazole-3-carboxylic acid ((S)-2-methyl-1-thiocarbamoylbutyl)amide]	Relative LH concentration (%) (averages ± SEM compared with the concentration before treatment) (castrated rats; time 0 h): 95.0 ± 9.3%; Relative LH concentration (%) (averages ± SEM compared with the concentration before treatment) (castrated rats; time +4 h): 17.4 ± 3.3%; Relative LH concentration (%) (averages ± SEM compared with the concentration before treatment) (castrated rats; time +6 h): 16.0 ± 1.5%; Relative LH concentration (%) (averages ± SEM compared with the concentration before treatment) (castrated rats; time +8 h): 12.9 ± 1.0%; Relative LH concentration (%) (averages ± SEM compared with the concentration before treatment) (castrated rats; time +12 h): 16.0 ± 2.6%; Relative LH concentration (%) (averages ± SEM compared with the concentration before treatment) (castrated rats; time +24 h): 65.7 ± 10.8%; Relative LH concentration (%) (averages ± SEM compared with the concentration before treatment) (castrated rats; time +30 h): 78.1 ± 7.7%; Relative LH concentration (%) (averages ± SEM compared with the concentration before treatment) (castrated rats; time −24 h (before treatment)): 105.4 ± 12.7%
									CC(C)OC(=O)c1cn(Cc2c(F)cccc2F)c2sc(-c3ccc(NC(=O)C(C)C)cc3)c(CN(C)Cc3ccccc3)c2c1=O [Compound T-98475]	receptor affinity (LHRH receptor [5]): high; bioavailability [6]: low
2.3	1900 nM	840 nM	69%	84%	2.3	1500 nM	810 nM	0.27 nM	CCC(C)[C@H](NC(=O)Cc1ccccc1F)C(=O)N[C@]1(C(=O)N[C@H](C(N)=S)C(C)CC)CCc2[nH]c3c(C(F)(F)F)cccc3c2C1 (stereo partly drawn) [Compound 76, (R)-3-{(S)-2-[2-(2-fluorophenyl)acetylamino]-3-methylpentanoylamino}-8-trifluoromethyl-2,3,4,9-tetrahydro-1H-carbazole-3-carboxylic acid ((S)-2-methyl-1-thiocarbamoylbutyl)amide]	

Reference: US8067456B2 (AEterna Zentaris GmbH, priority 2004, dated 2011)
